# Values of other authors in patent US20240197636A1, “TISSUE-SPECIFIC NUCLEIC ACID DELIVERY BY MIXED CATIONIC LIPID PARTICLES” (OMEGA THERAPEUTICS, INC., priority 2021, published 2024).
smiles,measurement,value
"CCCCC/C=C\C/C=C\CCCCCCCCC(CCCCCCCC/C=C\C/C=C\CCCCC)OC(=O)CCCN(C)C [MC3, (6Z,9Z,28Z,31Z)-heptatriaconta-6,9,28,31-tetraen-19-yl 4-(dimethylamino) butanoate]",pKa,6.4
